Measurements reported in publication PMC11790914, “Chemogenomics for steroid hormone receptors (NR3)” (Communications Chemistry, 2025).
“And” between values parts separate entries of the source, which are not always exact repeats. Identical values can stand only once.

Experiments:
HEK293T cells [1] = assay: Cytotoxicity: metabolic activity (WST-8 / CCK-8 assay); settings: 1 µM; HEK293T, 24 h; WST-8; normalized to 0.1% DMSO; single replicates
BRPF1 = target: T1, BRPF1 (Homo sapiens, UniProt P55201); assay: Liability panel screening by DSF: BRPF1; assay type: binding; settings: DSF, 20 µM, n=2; read-out: Mean ΔTM BRPF1
T1 construct: This panel comprised ten highly ligandable kinases and bromodomains; made in house
T1 sequence (P55201 628-732 limits assumed): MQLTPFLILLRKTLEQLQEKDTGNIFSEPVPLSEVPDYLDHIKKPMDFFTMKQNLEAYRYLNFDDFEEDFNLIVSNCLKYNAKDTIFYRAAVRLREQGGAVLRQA
Procedure: (§1) Reference ligands are listed in the methods section.
(§2) In-house produced recombinantly expressed proteins[62] of the liability panel targets were diluted in a buffer containing 10 mM HEPES (pH 7.5) and 500 mM NaCl to a concentration of 2 µM. SYPRO Orange (Invitrogen, Carlsbad, California, USA; #S6650) as a fluorescence probe was added at a 1:1000 dilution to the proteins. […] Temperature-dependent unfolding profiles were measured on a QuantStudio™ 5 real-time PCR machine (Thermo Fisher Scientific, Waltham, Massachusetts, USA; #A28140). […] The temperature was increased 3 °C per minute to a maximum temperature of 85 °C. Experiments were run as technical duplicates. […] Data were analyzed with the internal Thermal Shift Software (version 1.4, Thermo Fisher Scientific) using the Boltzmann equitation to determine the inflection point of the transition curve. Differences in melting temperature are given as ∆Tm in K. […]
(§3) scanning fluorimetry (DSF).
(§4) a concentration of 20 µM.

TRIM24 = target: T2, TRIM24 (Homo sapiens, UniProt O15164); assay: Liability panel screening by DSF: TRIM24; assay type: binding; settings: DSF, 20 µM, n=2; read-out: Mean ΔTM TRIM24
T2 construct: This panel comprised ten highly ligandable kinases and bromodomains; made in house
T2 sequence (O15164 899-1004 limits assumed): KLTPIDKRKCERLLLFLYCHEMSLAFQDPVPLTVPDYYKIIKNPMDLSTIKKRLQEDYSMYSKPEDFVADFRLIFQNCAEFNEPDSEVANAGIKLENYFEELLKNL
Procedure: as §1, §2, §3, §4

[2] = system: ATF6 activity in Hela ATF6 reporter cells; assay: Endoplasmic reticulum stress assay (ATF6 Renilla luciferase reporter, tunicamycin); assay type: cell-based; settings: Homo sapiens, HeLa, 1 µM, single replicates n=1 to n=5; read-out: ER stress [rel. ATF6 activity]
Procedure: After 24 h, cells were incubated with the test compounds solubilized with 0.1% DMSO in the same medium without puromycin. After 4 h incubation, tunicamycin (100 ng/mL) was added. After another 18 h incubation, cells were assayed for renilla luminescence using DualGlo reagent (Promega) on a Tecan SPARK Cyto (Tecan). Test samples were normalized to the 0.1% DMSO control. Each sample was repeated in five biologically independent experiments.

ABL1 = target: T3, ABL1 (Homo sapiens, UniProt P00519); assay: Liability panel screening by DSF: ABL1; assay type: binding; settings: DSF, 20 µM, n=2; read-out: Mean ΔTM ABL1
T3 construct: made in house
T3 sequence (P00519 whole entry, species assumed): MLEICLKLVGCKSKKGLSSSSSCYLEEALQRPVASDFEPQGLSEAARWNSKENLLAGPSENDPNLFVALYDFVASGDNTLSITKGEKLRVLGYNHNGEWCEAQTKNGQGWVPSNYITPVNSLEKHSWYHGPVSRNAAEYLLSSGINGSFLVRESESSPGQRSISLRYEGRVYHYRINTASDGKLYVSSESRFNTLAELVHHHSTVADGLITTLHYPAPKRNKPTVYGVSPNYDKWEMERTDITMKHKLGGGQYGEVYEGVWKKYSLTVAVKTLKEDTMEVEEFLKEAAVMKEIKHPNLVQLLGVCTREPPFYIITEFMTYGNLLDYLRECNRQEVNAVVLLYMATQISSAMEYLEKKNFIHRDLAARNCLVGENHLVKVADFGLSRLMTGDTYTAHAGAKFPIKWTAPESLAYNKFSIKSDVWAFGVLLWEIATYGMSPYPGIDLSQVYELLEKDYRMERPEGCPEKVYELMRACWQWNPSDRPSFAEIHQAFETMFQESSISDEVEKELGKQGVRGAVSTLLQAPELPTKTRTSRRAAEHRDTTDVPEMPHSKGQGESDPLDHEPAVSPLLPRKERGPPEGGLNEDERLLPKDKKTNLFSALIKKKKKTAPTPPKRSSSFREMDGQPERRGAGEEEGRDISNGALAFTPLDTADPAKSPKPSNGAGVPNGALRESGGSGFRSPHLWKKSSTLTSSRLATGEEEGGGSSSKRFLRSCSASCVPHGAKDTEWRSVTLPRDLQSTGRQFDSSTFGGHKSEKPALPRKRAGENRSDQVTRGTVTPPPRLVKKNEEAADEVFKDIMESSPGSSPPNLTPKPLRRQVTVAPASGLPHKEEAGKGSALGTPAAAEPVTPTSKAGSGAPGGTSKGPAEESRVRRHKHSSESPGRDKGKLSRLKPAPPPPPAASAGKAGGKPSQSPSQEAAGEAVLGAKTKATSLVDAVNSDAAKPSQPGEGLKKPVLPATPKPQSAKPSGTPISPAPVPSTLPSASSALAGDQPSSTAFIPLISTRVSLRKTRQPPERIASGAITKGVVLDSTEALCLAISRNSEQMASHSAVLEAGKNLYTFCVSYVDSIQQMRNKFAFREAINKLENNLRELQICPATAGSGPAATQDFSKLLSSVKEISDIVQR
Procedure: as §1, §2, §3, §4

[3] = system: NF-κB activity in HEK293 NF-κB reporter cells; assay: NF-kB activity assay (GFP reporter, ionomycin/PMA); assay type: cell-based; settings: n=3
Procedure: Fig. 6 Application of the NR3 CG set.
After 24 h, cells were incubated with the test compounds solubilized with 0.1% DMSO in the same medium without puromycin. After 4 h incubation, ionomycin (100 ng/mL) and phorbol-12-myristat-13-acetate (PMA, 10 ng/mL) was added, and the cells were imaged for confluence and GFP expression every 90 min. over 24 h using a Tecan SPARK Cyto (Tecan). The number of GFP expressing cells was normalized to confluence in each sample. Each sample was repeated in three biologically independent experiments.

CSNK1D = target: T4, CSNK1D (Homo sapiens, UniProt P48730); assay: Liability panel screening by DSF: CSNK1D; assay type: binding; settings: DSF, 20 µM, n=2; read-out: Mean ΔTM CSNK1D
T4 construct: made in house
T4 sequence (P48730 whole entry, species assumed): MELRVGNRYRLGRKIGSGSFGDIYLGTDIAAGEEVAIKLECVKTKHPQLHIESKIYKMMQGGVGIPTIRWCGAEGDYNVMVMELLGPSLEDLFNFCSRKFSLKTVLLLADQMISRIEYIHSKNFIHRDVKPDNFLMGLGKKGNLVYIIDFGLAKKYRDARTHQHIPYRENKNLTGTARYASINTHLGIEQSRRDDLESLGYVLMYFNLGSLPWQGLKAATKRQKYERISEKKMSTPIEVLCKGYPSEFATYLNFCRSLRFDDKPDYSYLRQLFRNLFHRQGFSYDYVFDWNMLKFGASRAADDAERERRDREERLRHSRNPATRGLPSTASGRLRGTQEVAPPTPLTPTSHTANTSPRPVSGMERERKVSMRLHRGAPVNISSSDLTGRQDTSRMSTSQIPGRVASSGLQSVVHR
Procedure: as §1, §2, §3, §4

HEK293T cells [4] = assay: Cytotoxicity: growth-rate (change in confluence over 24 h); settings: 1 µM, normalized to 0.1% DMSO control, single replicates (n=1...)
GSK3B = target: T5, GSK3B (Homo sapiens, UniProt P49841); assay: Liability panel screening by DSF: GSK3B; assay type: binding; settings: DSF, 20 µM, n=2; read-out: Mean ΔTM GSK3B
T5 construct: made in house
T5 sequence (P49841 whole entry, species assumed): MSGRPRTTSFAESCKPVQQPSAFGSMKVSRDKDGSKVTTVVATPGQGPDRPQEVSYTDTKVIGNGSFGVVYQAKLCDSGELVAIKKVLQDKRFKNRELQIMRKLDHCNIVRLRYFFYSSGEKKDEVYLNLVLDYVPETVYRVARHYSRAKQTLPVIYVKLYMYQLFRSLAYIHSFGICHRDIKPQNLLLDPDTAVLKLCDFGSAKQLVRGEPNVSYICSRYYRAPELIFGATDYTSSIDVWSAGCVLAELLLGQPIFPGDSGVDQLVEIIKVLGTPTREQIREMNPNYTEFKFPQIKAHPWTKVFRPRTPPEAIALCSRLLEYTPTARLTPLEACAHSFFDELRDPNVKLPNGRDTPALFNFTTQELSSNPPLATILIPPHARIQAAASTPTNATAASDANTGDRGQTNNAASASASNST

HEK293T cells [5] = assay: Cytotoxicity: necrosis induction (red fluorescent dye for permeable plasma membranes); assay type: cell-based; settings: 1 µM, 24 h, necrotic cell count normalized to 0.1% DMSO, single replicates;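 note: compounds applied in DMEM high glucose with 0.1% FCS and 0.1% DMSO, necrotic HEK293T cells counted by red staining of cells whose plasma membranes had become permeable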
Procedure: Cells were incubated with the test compounds at the indicated concentrations solubilized with 0.1% DMSO for 24 h. […] Necrotic cells were detected with a red fluorescent dye that labels cells with permeable plasma membranes after 24 h treatment and the necrotic cell count was normalized to 0.1% DMSO treated cells (n = 4). e NR family selectivity profiling of NR3 CG compound candidates in uniform Gal4-hybrid reporter gene assays for selected NR representing the NR1, NR2, NR4 and NR5 families.
HEK293T cells (German Collection of Microorganisms and Cell Culture GmbH, DSMZ; #ACC305) were cultured in DMEM high glucose, supplemented with 10% fetal calf serum (FCS), sodium pyruvate (1 mM), penicillin (100 µ/mL) and streptomycin (100 µg/mL) at 37 °C and 5% (v/v) CO2, and seeded in pre-coated (10 µg/mL collagen G solution (Merck KgaA; #L7213) for 30 min at 37 °C) 96-well plates (2 × 10^5 cells per well). After 24 h, the cells were treated with the respective NR3 CG compound candidate at the recommended concentration, bexarotene (100 µM) or doxorubicin (30 µM) as positive controls in DMEM high glucose supplemented with 0.1% FCS, penicillin (100 µ/mL), streptomycin (100 µg/mL) and 0.1% DMSO, or 0.1% DMSO alone as an untreated control. Each sample was prepared in at least four biologically independent replicates. […] Before drug administration, after the first medium exchange, 24 h after drug administration, and after fluorescence imaging cell confluence was assessed using the Tecan Spark Cyto, to account for changes in cell confluence due to drug administration and cell handling. Compound effects on cell confluence, apoptosis, metabolic activity and necrosis were normalized to the vehicle control of each biological replicate individually.

BRD4 = target: T6, BRD4 (Homo sapiens, UniProt O60885); assay: Liability panel screening by DSF: BRD4; assay type: binding; settings: DSF, 20 µM, n=2; read-out: Mean ΔTM BRD4
T6 construct: This panel comprised ten highly ligandable kinases and bromodomains; made in house
Procedure: as §1, §2, §3, §4

HEK293T cells [6] = assay: Cytotoxicity: apoptosis induction (caspase-3/7 DEVD fluorogenic DNA dye); settings: 1 µM; HEK293T, 24 h; apoptotic cell count normalized to 0.1% DMSO; single replicates
AURKA = target: T7, AURKA (Homo sapiens, UniProt O14965); assay: Liability panel screening by DSF: AURKA; assay type: binding; settings: DSF, 20 µM, n=2; read-out: Mean ΔTM AURKA
T7 construct: made in house
T7 sequence (O14965 1-403): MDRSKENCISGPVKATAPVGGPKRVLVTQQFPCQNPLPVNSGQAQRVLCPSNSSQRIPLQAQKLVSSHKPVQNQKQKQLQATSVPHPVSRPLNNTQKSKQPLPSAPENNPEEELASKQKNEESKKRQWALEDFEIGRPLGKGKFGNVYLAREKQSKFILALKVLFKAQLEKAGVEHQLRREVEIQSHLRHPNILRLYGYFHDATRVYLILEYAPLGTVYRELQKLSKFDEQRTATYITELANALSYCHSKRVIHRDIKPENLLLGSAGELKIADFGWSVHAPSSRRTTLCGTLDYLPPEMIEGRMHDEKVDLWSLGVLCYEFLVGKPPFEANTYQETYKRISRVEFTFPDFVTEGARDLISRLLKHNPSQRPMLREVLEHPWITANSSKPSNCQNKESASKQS
Procedure: as §1, §2, §3, §4

FGFR3 = target: T8, FGFR3 (Homo sapiens, UniProt P22607); assay: Liability panel screening by DSF: FGFR3; assay type: binding; settings: DSF, 20 µM, n=2; read-out: Mean ΔTM FGFR3
T8 construct: made in house
T8 sequence (P22607 23-806, species assumed): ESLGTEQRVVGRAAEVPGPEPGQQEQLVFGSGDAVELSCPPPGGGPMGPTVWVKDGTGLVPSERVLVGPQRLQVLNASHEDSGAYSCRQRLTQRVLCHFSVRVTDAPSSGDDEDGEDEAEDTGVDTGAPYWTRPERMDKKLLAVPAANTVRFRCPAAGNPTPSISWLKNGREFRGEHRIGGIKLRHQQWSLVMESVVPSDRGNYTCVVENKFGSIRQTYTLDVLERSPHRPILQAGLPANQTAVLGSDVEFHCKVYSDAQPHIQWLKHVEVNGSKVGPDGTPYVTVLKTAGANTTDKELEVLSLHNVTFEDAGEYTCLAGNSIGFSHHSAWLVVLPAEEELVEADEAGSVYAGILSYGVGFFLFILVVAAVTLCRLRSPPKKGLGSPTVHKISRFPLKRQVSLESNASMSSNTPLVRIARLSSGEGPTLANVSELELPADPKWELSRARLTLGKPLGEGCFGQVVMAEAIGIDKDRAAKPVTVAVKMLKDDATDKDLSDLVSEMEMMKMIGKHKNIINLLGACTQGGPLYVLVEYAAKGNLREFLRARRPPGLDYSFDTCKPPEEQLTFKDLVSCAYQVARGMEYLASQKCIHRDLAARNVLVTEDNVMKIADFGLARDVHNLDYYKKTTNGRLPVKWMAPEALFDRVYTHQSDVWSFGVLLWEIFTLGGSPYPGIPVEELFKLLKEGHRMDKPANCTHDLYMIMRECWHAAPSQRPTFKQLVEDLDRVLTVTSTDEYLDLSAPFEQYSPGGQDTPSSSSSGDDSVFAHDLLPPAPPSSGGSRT
Procedure: as §1, §2, §3, §4

MAPK1 = target: T9, MAPK1 (Homo sapiens, UniProt P28482); assay: Liability panel screening by DSF: MAPK1; assay type: binding; settings: DSF, 20 µM, n=2; read-out: Mean ΔTM MAPK1
T9 construct: made in house
T9 sequence (P28482 whole entry, species assumed): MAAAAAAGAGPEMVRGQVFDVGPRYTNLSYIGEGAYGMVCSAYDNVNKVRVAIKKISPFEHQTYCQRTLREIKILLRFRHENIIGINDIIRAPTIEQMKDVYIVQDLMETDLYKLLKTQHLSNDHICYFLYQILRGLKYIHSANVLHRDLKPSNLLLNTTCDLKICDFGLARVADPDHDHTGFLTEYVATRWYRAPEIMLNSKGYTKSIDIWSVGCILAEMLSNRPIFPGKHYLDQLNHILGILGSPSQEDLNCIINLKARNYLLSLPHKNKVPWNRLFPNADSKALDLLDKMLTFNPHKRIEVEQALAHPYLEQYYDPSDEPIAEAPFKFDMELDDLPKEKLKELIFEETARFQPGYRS
Procedure: as §1, §2, §3, §4

CDK2 = target: T10, CDK2 (Homo sapiens, UniProt P24941); assay: Liability panel screening by DSF: CDK2; assay type: binding; settings: DSF, 20 µM, n=2; read-out: Mean ΔTM CDK2
T10 construct: made in house
Procedure: as §1, §2, §3, §4

| Structure (SMILES) | Metabolic activity [MA] (HEK293T cells [1]) | ΔTm at 20 µM (BRPF1) [°C] | ΔTm at 20 µM (TRIM24) [°C] | ΔTm at 20 µM (ABL1) [°C] | Mean NFκB response ([3]; 1 µM, 1,5 h) | Mean NFκB response ([3]; 1 µM, 4,5 h) | Mean NFκB response ([3]; 1 µM, 7,5 h) | Mean NFκB response ([3]; 1 µM, 10,5 h) | Mean NFκB response ([3]; 1 µM, 13,5 h) | Mean NFκB response ([3]; 1 µM, 16,6 h) | Mean NFκB response ([3]; 1 µM, 19,5 h) | Mean NFκB response ([3]; 1 µM, 22,5 h) | Mean NFκB response ([3]; 1 µM, 3 h) | Mean NFκB response ([3]; 1 µM, 6 h) | Mean NFκB response ([3]; 1 µM, 9 h) | Mean NFκB response ([3]; 1 µM, 12 h) | Mean NFκB response ([3]; 1 µM, 15 h) | Mean NFκB response ([3]; 1 µM, 18 h) | Mean NFκB response ([3]; 1 µM, 21 h) | Mean NFκB response ([3]; 1 µM, 24 h) | other results |
| --- | --- | --- | --- | --- | --- | --- | --- | --- | --- | --- | --- | --- | --- | --- | --- | --- | --- | --- | --- | --- | --- |
| O=C(/C=C/c1ccc(O)cc1)c1ccc(O)cc1O [Isoliquiritigenin] | 1.06 and 1.13 and 1.02 (2×) and 1.07 and 1.01 and 1.10 and 1.11 | 0.82 | -0.0317 | 6.6 | 3578.42 GFP+-cells/confluence ∙ 1000 | 4286.96 GFP+-cells/confluence ∙ 1000 | 9277.37 GFP+-cells/confluence ∙ 1000 | 19586.05 GFP+-cells/confluence ∙ 1000 | 28313.33 GFP+-cells/confluence ∙ 1000 | 34970.00 GFP+-cells/confluence ∙ 1000 | 39776.67 GFP+-cells/confluence ∙ 1000 | 43150.00 GFP+-cells/confluence ∙ 1000 | 3834.99 GFP+-cells/confluence ∙ 1000 | 5800.94 GFP+-cells/confluence ∙ 1000 | 14742.34 GFP+-cells/confluence ∙ 1000 | 24113.33 GFP+-cells/confluence ∙ 1000 | 32050.00 GFP+-cells/confluence ∙ 1000 | 37423.33 GFP+-cells/confluence ∙ 1000 | 41230.00 GFP+-cells/confluence ∙ 1000 | 44476.67 GFP+-cells/confluence ∙ 1000 | activity at 1 µM [2]: 96%; ΔTm at 20 µM (CSNK1D): 1.31 °C; Growth rate [GR] (HEK293T cells [4]): 0.68 and 1.38 and 0.82 and 1.00 and 0.76 and 0.96 and 1.05 and 0.37 and 0.91 and 1.86; ΔTm at 20 µM (GSK3B): 2.87 °C; Necrosis induction [NI] (HEK293T cells [5]): 0.85 and 0.80 and 0.45 and 1.05; ΔTm at 20 µM (BRD4): 1.51 °C; Apoptosis induction [AI] (HEK293T cells [6]): 0.29 and 1.26 and 0.88 and 1.02 and 0.64 and 1.54; ΔTm at 20 µM (AURKA): 1.81 °C; ΔTm at 20 µM (FGFR3): 1.26 °C; ΔTm at 20 µM (MAPK1): 1.33 °C; ΔTm at 20 µM (CDK2): 1.64 °C |
| Cc1c(N2C(=O)C3C(O)CCN3C2=O)ccc(C#N)c1Cl (stereo not drawn) [BMS564929] | 1.09 and 1.08 and 0.94 and 1.07 (2×) and 0.99 and 0.92 and 1.10 | 0.06 | 0.44 | 0.02 | 2292.65 GFP+-cells/confluence ∙ 1000 | 2993.37 GFP+-cells/confluence ∙ 1000 | 6319.46 GFP+-cells/confluence ∙ 1000 | 12250.00 GFP+-cells/confluence ∙ 1000 | 16870.00 GFP+-cells/confluence ∙ 1000 | 20913.33 GFP+-cells/confluence ∙ 1000 | 23700.00 GFP+-cells/confluence ∙ 1000 | 25766.67 GFP+-cells/confluence ∙ 1000 | 2425.99 GFP+-cells/confluence ∙ 1000 | 4160.27 GFP+-cells/confluence ∙ 1000 | 9390.00 GFP+-cells/confluence ∙ 1000 | 14670.00 GFP+-cells/confluence ∙ 1000 | 19226.67 GFP+-cells/confluence ∙ 1000 | 22263.33 GFP+-cells/confluence ∙ 1000 | 24826.67 GFP+-cells/confluence ∙ 1000 | 26713.33 GFP+-cells/confluence ∙ 1000 | ΔTm at 20 µM (CSNK1D): -0.38 °C; ΔTm at 20 µM (GSK3B): -0.71 °C; Necrosis induction [NI] (HEK293T cells [5]): 0.79 and 0.76 and 0.66 and 0.82; ΔTm at 20 µM (BRD4): -2.89 °C; Apoptosis induction [AI] (HEK293T cells [6]): 0.43 and 0.64 and 0.69 and 0.74 and 0.68 and 1.04; ΔTm at 20 µM (AURKA): -2.25 °C; ΔTm at 20 µM (FGFR3): -0.04 °C; ΔTm at 20 µM (MAPK1): 0.12 °C; ΔTm at 20 µM (CDK2): 0.04 °C |
